Consider 4 compounds from patent US8389501B2, “Anticancer compound” (priority 2011, dated 2013).

Experiment [1] deals with human lung cancer cell line (NCI-H460). Kind of experiment: Sulforhodamine B (SRB) growth inhibition assay. The format is cell-based. The conditions noted are these: for GI50: Homo sapiens. The method, then: The sulforhodamine B (SRB) protein-staining assay was employed for measurement of in vitro growth inhibition and cytotoxicity (21) The appropriate cell density (cells/well) of NCI-H460 cells (1×10^4) was added in 96-well plates. The cell density used was dependent on the doubling time of the cell line leading to the formation of monolayer. After 24 h incubation, different doses of Compounds 1-3 were added and incubated for further 48 h. This was followed by fixation of cells with ice-cold trichloroacetic acid (50 μl, 50%) at room temperature for 30 min. The plates were carefully washed five times with distilled water, and left for overnight drying in air. Sulforhodamine B dye (100 μl, 0.4% in 1% acetic acid) was introduced in each well and after 30 min residual dye was removed using acetic acid (1%) and air-dried overnight. The bound SRB dye was solubilized in Tris-base solution (100 μl, 10 mM) with gentle shaking on a plate-shaker for 5 min prior to optical density (OD) measurements at 545 nm in a plate reader. Drug concentrations causing growth inhibition (GI50) of 50% cells were calculated from dose response curves and total growth inhibition of Compound 2 was also evaluated.

For experiment [2], the system named is PHA-activated T-cell proliferation. Kind of experiment: PHA-activated T-cell proliferation assay (3H-thymidine incorporation). It is filed as cell-based, human. The conditions noted are these: for IC50: Homo sapiens, T-cell, PHA 5 μg/mL, 72 hours incubation; for effect on T-cell proliferation (in words): PHA-activated. The method, then: (§1) FIG. 2: Effect of Compounds 1-3 on phytohemagglutinin (PHA) T-cell proliferation and production. (2A) The bar graph represents effects of various concentrations of the test Compounds 1-3 after 72 h incubation with peripheral blood mononuclear cells at 37° C. Effect of compounds on T-cell proliferation response is compared with non-proliferated […] cells. The bar graph (2B) represents effects of various concentrations of the test Compounds 1-3 on production of IL-2 compared with (+ve) and without (−ve) PHA induced IL-2 production. Each bar represents the mean value of triplicate reading±SD.
The T-cell proliferation assay was performed as described by Nielson et al. (19). In this assay, isolated lymphocytes were stimulated by adding the phytohemagglutinin (PHA) in culture. The rate of proliferation and survival was measured by radiolabelled thymidine incorporation method. The lymphocytes were isolated as described by Boyum (20). A 50 μL of cell suspension (10^6/mL) was added to each well of a 96-well round bottom tissue culture plate. 50 μL of PHA was added in each well from the working solution (20 μg/mL) to have final concentration 5 μg/mL. The final volume was adjusted to 200 μL in each well by adding complete RPMI media. The plates were incubated at 37° C. for 72 hours (90% humidity, 5% CO2/air). Methyl-^3H thymidine (Amersham Pharmacia Biotech) 0.5 μCi was added in each well and incubated for further 18 hours. Cells were harvested on a filter mat (Type G-7) using cell harvester (INOTECH IH-280, Switzerland) and the radioactivity (CPM) was measured using a β-scintillation counter (LS 6500, Beckman Coulter, USA). (FIG. 2A)
Background: Dividing cells build labelled thymidine or BrdU into new DNA.

For experiment [3], the system named is isolated polymorphoneutrophils (PMNs). Kind of experiment: Oxidative burst, luminol-enhanced chemiluminescence, isolated PMNs. It is filed as cell-based, human. The conditions noted are these: for IC50: Homo sapiens, isolated PMNs, opsonized zymosan-A, luminol. As to the method: (§2) In addition to that, effects of these compounds on T-cells proliferation were also evaluated; investigating their (Compounds 2 and 3) ability to modulate PHA activated T-cell proliferation response and production of IL-2 cytokine.
(§3) Heparinized blood was obtained by vein puncture aseptically from healthy volunteers (25-38 years age). The buffy coat containing PMNs was collected by dextran sedimentation and the cells were isolated after the LSM density gradient centrifugation from the tube base. Cells were washed twice and suspended in Hank's Balance Salt Solution (Ca^2+ and Mg^2+ free) (HBSS^−−), pH 7.4. Neutrophils were purified from RBCs contamination using hypotonic solution. Cells were adjusted to their required concentration using Hank's Balance Salt Solution containing Ca^2+ and Mg^2+ (HBSS^++).
(§4) Luminol-enhanced chemiluminescence assay was performed as described by Helfand et al. (17), and Haklar et al. (18) with some modifications. Briefly, 25 μL diluted whole blood (1:200 dilution in sterile HBSS^++) or 25 μL of PMNs (1×10^6) cells were incubated with 25 μL of serially diluted compounds with concentration ranges between 3.2-50 mg/mL. Tests were performed in white 96-well plates, which were incubated at 37° C. for […] in the thermostated chamber of the luminometer. Opsonized zymosan-A, 25 μL, followed by 25 μL luminol (7×10^−5 M) along with HBSS^++ was added to each well to obtain a 100 μL volume/well. Wells received HBSS^++, and cells but no compounds were used as a negative control. Chemiluminescence peaks were recorded with the Luminometer. Results were monitored as chemiluminescence relative light units (RLU) with peak and total integral values.

The subject of experiment [4] is whole blood phagocytes. Kind of experiment: Oxidative burst, luminol-enhanced chemiluminescence, whole blood. The format is cell-based, human. The conditions noted are these: for IC50: Homo sapiens, diluted whole blood, opsonized zymosan-A, luminol. The method, then:
as §2, §3, §4

For experiment [5], the system named is IL-2 production. Briefly: IL-2 cytokine production by PHA activated peripheral blood mononuclear cells (ELISA). The format is cell-based, human. The method, then: as §1
IL-2 cytokine was produce from peripheral blood mononuclear cells (PBMC). IL-2 cytokine production by PHA activated cells in the presence or absence of test compounds was studied by ELISA using the human cytokine kit (Diaclone, Besancon Cedex France). Briefly, freshly prepared mononuclear cells (10^5/well) were cultured in 96-well microtiter flat bottom plate in the presence or absence of 5 μg/mL PHA. Four different concentrations (10.33-331.13 μM/mL) of compounds, along with PHA, were used in this assay. The culture plate was incubated at 37° C. for 18 h. Then the supernatant was collected and analyzed for IL-2 cytokine production following kit manufacturer instructions.
A general note: In an ELISA, binding on a coated surface is turned into a signal by an enzyme label.

Setting [6] is: Homo sapiens, PBMC, 18 h, PHA-activated PBMC, 18 h, ELISA, read-out: IC50 (μM) IL-2.

SMILES strings stand for the structures. Like-named read-outs stand apart in the source and are kept apart here. Some results are limits rather than exact numbers.

`COc1cccc2c1C(=O)c1c(O)c3c(c(O)c1C2=O)C[C@@](O)(C(=O)CO)C[C@@H]3O[C@H]1C[C@H](N)[C@H](O)[C@H](C)O1` [doxorubicin, reference compound] showed a GI50 in experiment [1] (NCI-H460, 48 h, SRB) of 0.08 ± 0.02 µM.
In the case of `C[C@]12C=CC(=O)C[C@@H]1CC[C@@H]1[C@@H]2CC[C@@]2(C)[C@H]1CC[C@]2(C)O` [Compound 2, 17β-hydroxy-17α-methyl-5α-androst-1-en-3-one], the “anticancer activity against NCI-H460 cell line (in words)” value (“anticancer activity” below) in experiment [1] is “showed anticancer activity”. This compound also gave a GI50 in experiment [1] (NCI-H460, 48 h, SRB) of 22.5 ± 4.15 µM. For the same compound, the “TGI” value in experiment [1] (NCI-H460, 48 h, SRB) stood at 60 ± 9.2 µM. Besides, the IC50 is below 10.3 µM in experiment [2]; above 166 µM in experiment [3]; above 331 µM in experiment [4]; 16.9 ± 1.32 µM in experiment [5] (setting [6]); 16.9 ± 1.32 µM in experiment [5] (Homo sapiens, PBMC, FIG. 2, read-out: IL-2 production IC50 (unit inferred)). In addition, in experiment [3], the “effect on reactive oxygen species (ROS) production, isolated neutrophils (in words)” value is given as “did not result in any significant effect”. The “effect on reactive oxygen species (ROS) production, whole blood phagocytes (in words)” value in experiment [4] is “did not result in any significant effect”.
Take `C[C@]12CCC(=O)C[C@@H]1CC[C@@H]1[C@@H]2CC[C@@]2(C)[C@H]1CC[C@]2(C)O` [Compound 3, 17β-hydroxy-17α-methyl-5α-androstan-3-one]: the “anticancer activity” value in experiment [1] is on record as “non-active”. The GI50 in experiment [1] (NCI-H460, 48 h, SRB) is above 100 µM. In addition, the “growth inhibition of cancer cells at 100 μM (in words)” value in experiment [1] (NCI-H460, 100 μM) was “not able to inhibit considerable growth of cancer cells”. The “TGI (μM)” value in experiment [1] (NCI-H460, 48 h, SRB) is “ND (ND: Values could not be determined indicates <50% inhibition of cell growth at maximum dose (100 μM) tested.)”. The IC50 in experiment [2] is 42.1 µM; in experiment [3], above 164 µM; in experiment [4], above 329 µM; in experiment [5] (setting [6]), 49.3 ± 1.32 µM; in experiment [5] (PHA-activated PBMC, 18 h, ELISA, read-out: IC50 (μM) IL-2) it was 49.3 ± 1.32 µM. Moreover, the “effect on T-cell proliferation (in words)” value in experiment [2] is “moderate inhibitory activity”. The “effect on reactive oxygen species (ROS) production, isolated neutrophils (in words)” value in experiment [3] is on record as “did not result in any significant effect”. Further, the “effect on reactive oxygen species (ROS) production, whole blood phagocytes (in words)” value in experiment [4] was “did not result in any significant effect”. Also, in experiment [5] (PHA-activated PBMC), the “effect on IL-2 production (in words)” value is “moderate inhibitory activity”.
Turning to `C[C@]12C=CC(=O)C=C1CC[C@@H]1[C@@H]2CC[C@@]2(C)[C@H]1CC[C@]2(C)O` [Compound 1, dianabol, reference compound], in experiment [1], the “anticancer activity” value is listed as “showed anticancer activity”. In addition, in experiment [1] (NCI-H460, 48 h, SRB), it took 28.3 ± 2.72 µM to inhibit growth by half (GI50). The “TGI (μM)” value in experiment [1] (NCI-H460, 48 h, SRB) is reported as “ND (ND: Values could not be determined indicates <50% inhibition of cell growth at maximum dose (100 μM) tested.)”. The IC50 in experiment [2] is above 167 µM; in experiment [3] it was above 167 µM; in experiment [4], above 333 µM; in experiment [5] (setting [6]), above 167 µM. Besides, in experiment [2], the “effect on T-cell proliferation (in words)” value is reported as “did not show any significant effect”. Besides, the “effect on IL-2 production (in words)” value in experiment [5] (PHA-activated PBMC) was “did not show any significant effect”.

What is called GI50 is the concentration giving 50% growth inhibition. The TGI is the concentration at which net growth stops. One may read the IC50 as the midpoint of a concentration-inhibition curve.
